From article PMC8876855, “AsKC11, a Kunitz Peptide from Anemonia sulcata, Is a Novel Activator of G Protein-Coupled Inward-Rectifier Potassium Channels” (Marine Drugs, 2022)
Bridges are numbered along the chain shown (N, C = ends). Where no end group is shown, it is not given here.

Legend:
GIRK1/2 channels = conditions: cited from earlier work
Description: (§1) To better understand the potential of activating neuronal GIRK1/2 channels for therapeutic intervention, selective and potent activators have been developed for GIRK channels. […] These activators are weak and nonspecific since they exert effects in the millimolar range and target several types of ion channels at the same range of concentrations. Thus, early investigation of the pathological and physiological relevance of GIRK channels was hampered partly by the lack of potent and selective probes. ...

GIRK2 channel = conditions: ref [2],[16]; cited from earlier work
Description: These activators are weak and nonspecific since they exert effects in the millimolar range and target several types of ion channels at the same range of concentrations. Thus, early investigation of the pathological and physiological relevance of GIRK channels was hampered partly by the lack of potent and selective probes. ...

[1] = cited from earlier work
Description: To better understand the potential of activating neuronal GIRK1/2 channels for therapeutic intervention, selective and potent activators have been developed for GIRK channels. […] Howeve ...

GIRK channels = conditions: ref [3],[38],[46]; cited from earlier work
Description: as §1

mGIRK1/2 [2] = target: T1, mGIRK1/2 (Mus musculus, UniProt P48542+P63250); assay: TEVC, K+ current enhancement through GIRK1/2 expressed in Xenopus oocytes; assay type: cell-based; conditions: 48 μM AsKC11; heterotetrameric GIRK1/2 in oocytes; mean ± SD, n = 4; data not shown
T1 construct: expressed in transfected cells; host or cells: Xenopus laevis oocytes injected with cRNA
T1 sequence (P63250 1-501): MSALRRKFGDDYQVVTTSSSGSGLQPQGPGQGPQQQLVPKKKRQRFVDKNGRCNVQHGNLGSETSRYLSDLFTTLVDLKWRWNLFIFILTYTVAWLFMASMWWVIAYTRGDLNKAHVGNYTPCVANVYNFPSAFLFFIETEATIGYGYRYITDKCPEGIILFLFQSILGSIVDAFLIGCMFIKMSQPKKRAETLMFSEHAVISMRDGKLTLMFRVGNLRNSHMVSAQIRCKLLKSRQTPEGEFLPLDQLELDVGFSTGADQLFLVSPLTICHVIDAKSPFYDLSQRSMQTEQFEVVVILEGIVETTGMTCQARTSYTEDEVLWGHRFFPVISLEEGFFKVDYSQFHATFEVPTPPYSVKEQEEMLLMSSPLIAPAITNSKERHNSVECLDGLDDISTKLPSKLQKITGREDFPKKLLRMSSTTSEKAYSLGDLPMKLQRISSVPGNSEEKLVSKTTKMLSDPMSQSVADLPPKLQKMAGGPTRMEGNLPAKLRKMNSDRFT
T1 sequence (P48542 1-425): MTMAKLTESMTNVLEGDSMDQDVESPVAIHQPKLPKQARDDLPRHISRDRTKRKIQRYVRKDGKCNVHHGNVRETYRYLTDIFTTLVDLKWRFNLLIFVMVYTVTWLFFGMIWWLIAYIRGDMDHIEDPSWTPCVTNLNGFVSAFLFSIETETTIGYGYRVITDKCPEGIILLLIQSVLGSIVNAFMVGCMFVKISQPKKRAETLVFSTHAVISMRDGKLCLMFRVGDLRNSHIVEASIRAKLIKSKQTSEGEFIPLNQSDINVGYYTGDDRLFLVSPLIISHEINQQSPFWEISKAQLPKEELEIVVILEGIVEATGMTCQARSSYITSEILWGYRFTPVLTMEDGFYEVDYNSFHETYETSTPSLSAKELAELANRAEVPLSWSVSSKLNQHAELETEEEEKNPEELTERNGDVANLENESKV
Description: To identify the novel activator of GIRK1/2 channels, we first tested the effects of venom fractions previously purified from the venom of Anemonia sulcata on whole-cell currents in oocytes expressing GIRK1/2 channels. […] The oocytes coinjected with GIRK1/2 cRNA were voltage-clamped at −90 mV. To increase the GIRK current at the negative potential, a high-potassium extracellular buffer (HK) was used, which allowed for more obvious currents and accurate measurement. Thus, after exchanging ND96 to HK, basal K^+ currents (IK,basal) were observed and were carried by GIRK1/2 channels (Figure 1a).
The potency of AsKC11 to enhance inward K^+ currents through GIRK1/2 channels was studied by applying increasing concentrations of AsKC11 (2.4, 12, 24, and 48 µM) to oocytes expressing GIRK1/2 channels. These oocytes were subjected to a 1-s voltage ramp protocol from −150 to +60 mV from a holding potential of −20 mV.
All procedures for the use and handling of adult female Xenopus laevis frogs (CRB Xénopes, Rennes, France) were approved by the Animal Ethics Committee of the KU Leuven (Project No. P186/2019) following regulations of the European Union (EU) concerning the welfare of laboratory animals, as declared in Directive 2010/63/EU. […] After recovery from anesthesia, frogs were returned to their tanks in the Aquatic Facility of KU Leuven and were monitored daily. […]

mGIRK1/2 [3] = target: T1, mGIRK1/2; assay: Kinetics and affinity of AsKC11 on GIRK1/2 channels (wash-in/wash-out, bimolecular scheme); assay type: cell-based
Description: As shown in the abovementioned results, AsKC11 binding was reversible. We next explored whether the AsKC11-elicited activation of GIRK1/2 channels followed a kinetic behavior of a simple bimolecular reaction. The current activation upon AsKC11 application and recovery upon AsKC11 removal followed a single exponential time course compatible with a bimolecular reaction scheme (See Section 4).
For the expression of potassium channels (hKV1.1, hKV1.2, hKV1.3, rKV1.4, rKV1.6, and mGIRK1/2, mGIRK2 alone, or IRK1) in Xenopus oocytes, the linearized plasmids were transcribed using the T3, T7, or SP6 mMESSAGEmMACHINE transcription kit (Ambion, Austin, TX, USA). Following the cRNA injection into oocytes and 1–4 days of incubation at 16 °C, electrophysiological experiments were conducted using the two-electrode voltage-clamp (TEVC) GeneClamp 500B (Axon Instruments, San Jose, CA, USA). Electrodes were fabricated from borosilicate glass tubes (1.14 mm outside diameter, 0.7 mm inside diameter) by a programmable microelectrode puller, PUL-1 (World Precision Instruments, Sarasota, FL, USA). Electrodes were filled with 3 M KCl and had tip resistances from 0.8 to 1.5 MΩ. […]

GIRK1/2 channel = target: T2, GIRK1/2 channel (Mus musculus, UniProt P63250); assay: two-electrode voltage clamp kinetics (koff/kon) in Xenopus oocytes
T2 chain 1: T1 sequence (P63250 1-501)
T2 chain 2: T1 sequence (P48542 1-425)

Cc1cc(NC(=O)Nc2ccc(F)c(F)c2)n(-c2ccccc2)n1 [ML297]
affinity of activity on GIRK1/2 (GIRK1/2 channels; ref [2],[5],[16]): nanomolar range | requirement for GIRK1/2 activation (GIRK1/2 channels; ref [2]): required the presence of the membrane phospholipid phosphatidylinositol 4,5-bisphosphate instead of Gi/o | effect on GIRK2 channel (GIRK2 channel): not affect the GIRK2 channel | effects in animal models ([1]; ref [2],[16]): antiepileptic and anxiolytic effects in animal models | pharmacokinetic properties ([1]; ref [2]): suboptimal

CCO [ethanol]
potency for activating GIRK channels (GIRK channels): very low potency

C[C@@H]1O[C@@H](O[C@H]2[C@H](Oc3cc(O)c4c(c3)O[C@H](c3ccc(O)cc3)CC4=O)O[C@H](CO)[C@@H](O)[C@@H]2O)[C@H](O)[C@H](O)[C@H]1O [naringin]
potency for activating GIRK channels (GIRK channels): very low potency

INKDCLLPKVVGFCRARFPRYYYNSSSRRCEKFIYGGCGGNANNFSSYYECHIKCFGPR (disulfide 5-55, 14-38, 30-51) [AsKC11]
enhancement in inward K+ currents, GIRK1/2 (mGIRK1/2 [2]): 74.1 ± 12.5% | koff (mGIRK1/2 [3]; 48 μM AsKC11, wash-out, read-out: first-order dissociation rate constant (koff = β)): 0.00633 s⁻¹ | kon (mGIRK1/2 [3]; 48 μM AsKC11, read-out: second-order association rate constant (α)): 78.2 M⁻¹ s⁻¹

B1: AsKC11 (protein)
chain: INKDCLLPKVVGFCRARFPRYYYNSSSRRCEKFIYGGCGGNANNFSSYYECHIKCFGPR
Kd (GIRK1/2 channel): 80.9 µM
